CCn1cc(CN(C(=O)C2CCCc3cc(OC)ccc32)c2ccc(C(C)C)cc2)cn1 (stereo not drawn) gave a melting point of 111 to 113 °C.
With CC(C)(C)c1ccc(Sc2ccc(C=C3SC(=S)NC3=O)cc2)cc1 the melting point was 211 to 212 °C.
For O=C(O)c1c(C=C2CC2)c2ccccc2n1Cc1cccc(C(F)(F)F)c1, the melting point was 148 to 150 °C.
In the case of NS(=O)(=O)c1ccc(NN=C2C(=O)Nc3ccc(C(=O)NCCCn4ccnc4)cc32)cc1, the melting point is reported as over 230 °C.
With O=S(=O)(c1cccc2ccccc12)c1n[nH]c2ccc(OCC3CCNCC3)cc12 the melting point was 175 to 177 °C.
For COCCc1nc2c(N)nc3ccccc3c2n1CCCNC(=S)NC1CCCCC1, the melting point was 199 to 200 °C.
For O=C(NCCN1CCC(O)(c2ccc(Cl)cc2)CC1)c1ccc(F)cc1[N+](=O)[O-], the melting point was 144 °C.
O=Cc1cc(O)c(O)c(C=O)c1CCCCC(=O)O showed a melting point of 148 to 152 °C.
Compound C1CNCCN2CCNCCNCCN(CCN1)CCOCCOCC2 has a melting point of 75 °C.
CCNC(=O)ON=C(C)C1=CCCN(C)C1 showed a melting point of 74 to 78 °C.
COc1cc2nc(N3CCc4c(cccc4C(=N)N4CCOCC4)C3)[nH]c(=O)c2cc1OC showed a melting point of 249 to 251 °C.
For COc1ccccc1C1=NNNN1C(c1ccccc1)(c1ccccc1)c1ccccc1, the melting point was 165 to 170 °C.
In the case of CCCCCCCc1cc2cc(C(=O)OCC)ccc2[nH]1, the melting point is reported as 66 to 69 °C.
CC(=O)OC1CC(C)(C)N(OC(=O)C=Cc2ccccc2)C(C)(C)C1 gave a melting point of 130 to 132 °C.
In the case of Cn1cc(-c2cccc(C(F)(F)F)c2)c(=O)c(C2CC=CCC2)c1 (stereo not drawn), the melting point is reported as 194 to 195 °C.
CN1C(=O)C(F)ON=C(c2ccccc2)c2cc(Cl)ccc21 (stereo not drawn) gave a melting point of 218 to 220 °C.
COc1cc(CC(=O)NCCCc2ccc(C)c(C)c2)ccc1OCCBr showed a melting point of 105 °C.
Compound CCOC(=O)c1ccc(CCC(=O)O)[nH]1 has a melting point of 126 to 128 °C.
Work on Cc1cc(O)c(C(C)(C)C)cc1SC(Sc1cc(C(C)(C)C)c(O)cc1C)Sc1cc(C(C)(C)C)c(O)cc1C yielded a melting point of 204 to 205 °C.
In the case of O=C1NS(=O)Oc2ccccc21 (stereo not drawn), the melting point is reported as 180 to 182 °C.
Work on O=C1Nc2ccccc2C12COc1cc3c(cc12)CCO3 (stereo not drawn) yielded a melting point of 105 to 107 °C.
Work on CC(C)n1nc(C#Cc2cccc(F)c2)ccc1=O yielded a melting point of 95.5 to 96.5 °C.
With CN1C(C(=O)Nc2ccccn2)=C(OC2OC(=O)c3ccccc32)c2ccccc2S1(=O)=O (stereo not drawn) the melting point was 151 to 152 °C.
For CCCCCCCCCCCCCCCCC#CCO, the melting point was 60 °C.
Compound O=C(Nc1ccc(Cl)cc1)N1CC(c2ccccc2)C(c2ccc(Cl)cc2)=N1 (stereo not drawn) has a melting point of 173 to 175 °C.
With CCOC(=O)c1c(C)nc(NN=C(C)C)c2nnn(CC)c12 the melting point was 68 to 72 °C.
CS(=O)(=O)c1ccc(C(CC2CCCC2)C(=O)Nc2nccs2)cc1C(F)(F)F (stereo not drawn) gave a melting point of 117 to 121 °C.
With COc1ccc(CN2Cc3cc(N(C)C)ccc3N=C2N)cc1 the melting point was 175 to 180 °C.
Compound Cc1nc[nH]c1CSCCNC(=N)NS(=O)(=O)c1ccccc1 has a melting point of 149 to 150 °C.
Work on COC(=O)CCc1cc2cc(Cl)ccc2n1S(=O)(=O)c1ccc(C(C)=O)cc1 yielded a melting point of 83 to 87 °C.
For FC(F)(F)c1ccc(/C=C/C2=CCN(Cc3c[nH]c4ncccc34)CC2)cc1, the melting point was 203 to 205 °C.
Work on COC(=O)c1cc(OC)c(Br)c(OC)c1 yielded a melting point of 120 to 122 °C.
In the case of CCOC(=O)c1cc2c(C)cccc2n1CCC(=O)O, the melting point is reported as 133 to 134 °C.
Compound CC1=CC(OC(=O)c2cccn2C)C(O)C(C)(C)CC1=O (stereo not drawn) has a melting point of 141 to 142 °C.
COc1ccc(-c2cc3ncccc3c(Cl)n2)cc1 gave a melting point of 126 to 127 °C.
Compound CCC(CC)(CCc1ccc(Cl)cc1)NC(=O)n1nc(N(C)C)n(N=C(C)CC(C)C)c1=O has a melting point of 121 °C.
Compound Cc1ccc2c(c1C)C(=O)CC2 has a melting point of 43 to 44 °C.
COc1ccc(Cn2nc(CO)c3cc(OC)c(OC)cc32)cc1OC gave a melting point of 187 °C.
With CCOC(=O)C(NC(=O)c1ccc(Cl)cc1)C(=O)OCC the melting point was 89.5 to 90.3 °C.
For O=C(CCc1ccc(Cl)cc1Cl)NC1N=C(c2ccccc2)c2ccccc2-n2ccnc21 (stereo not drawn), the melting point was 183 to 184 °C.
With Cc1nc(-c2ccc3c(c2)OCO3)c2cc3c(cc2n1)OCO3 the melting point was 207 to 210 °C.
Nc1nc(Cl)c(Cl)nc1C=Nc1ccc(Cl)cc1 gave a melting point of 179 to 182 °C.
With CN1CCN(C(=O)Nc2c(C(=O)c3ccccc3)[nH]c3cc(Cl)ccc23)CC1 the melting point was 168 to 170 °C.
With CC(C)CCC1CCCCc2c1oc(=O)c(C(c1ccccc1)C1CC1)c2O (stereo not drawn) the melting point was 67 to 77 °C.
Work on Cc1cc(N(C)C)ccc1C=O yielded a melting point of 66 to 67 °C.
Work on Cc1c(CC(=O)O)c2cc(O)ccc2n1C(=O)c1ccc(Cl)c(Cl)c1 yielded a melting point of 177 to 179 °C.
With COc1ccc(N2CCN(C(=O)[C@H](Cc3ccccc3)NC(=O)Nc3n[nH]c(=S)s3)CC2)cc1 the melting point was 201 to 203 °C.
For CC1(C)OCC(CCBr)CO1, the melting point was 18 °C.
For CCCc1nn(-c2ccc(C(F)(F)F)cn2)cc1CCCOc1c(C#N)cccc1CC(=O)O, the melting point was 146 to 147 °C.
CC(=O)c1nc2ccc(OC(C)C)cc2cc1OCc1ccccc1 gave a melting point of 102 to 104 °C.
For CCN(CC)CCn1cc2c(c1)-c1ccc(Cl)cc1C(c1ccccc1Cl)=NC2, the melting point was 130 to 131 °C.
Work on CCOC(=O)c1cnn(-c2ccc3ccccc3n2)c1S(N)(=O)=O yielded a melting point of 140 to 141 °C.
Work on CS(=O)(=O)c1ccccc1S(=O)(=O)Nc1cccc2cc(C(=O)NCCSC(c3ccccc3)(c3ccccc3)c3ccccc3)[nH]c12 yielded a melting point of 91 to 93 °C.
Work on CCOC(=O)c1cn(C)c2ccc(F)cc2c1=O yielded a melting point of 193 to 195 °C.
Compound C#CCN1C(=O)COc2ccc(-n3c(OC)nc(C(F)(F)F)cc3=O)cc21 has a melting point of 218 to 220 °C.
With CON=Cc1sc(-c2ccc(O)cc2C)c(C)c1-c1ccc(O)c(F)c1 the melting point was 172 to 177 °C.
In the case of Nc1cnc2c(F)c(F)ccc2c1, the melting point is reported as 161 °C.
Compound COc1cccc(Cc2oc3ccc(OC)cc3c2CC#N)c1 has a melting point of 81 °C.
Work on COc1cccc(C2(O)c3c(C)c(NC(=O)CC(C)(C)C)c(C)c(C)c3OC2(C)C)c1 (stereo not drawn) yielded a melting point of 154 to 155 °C.
In the case of CC(C)c1c(Sc2ccccc2)n(CC2=CCC(CO)C2)c(=O)[nH]c1=O (stereo not drawn), the melting point is reported as 166 to 168 °C.
For COC(=O)c1cccc(CN2C(=O)C(CCOc3ccc(CCNC(=O)OC(C)(C)C)cc3)Oc3ccccc32)c1 (stereo not drawn), the melting point was 112 to 113 °C.
O=C1NC(=O)c2c1cc1ccc3c(c1c2-c1cccnc1)OCO3 showed a melting point of 323 to 325 °C.
With CCc1ccc(C=CC(=O)NN2CC(=O)NC2=O)cc1Cl the melting point was 231 to 234 °C.
O=C(NC1CC1)C1CC(=O)N(Cc2ccccc2)C1 (stereo not drawn) gave a melting point of 94 to 96 °C.
Work on COc1ccc2cccc3c2c1CCC3CNC(=O)C1CC1 (stereo not drawn) yielded a melting point of 119 °C.
Work on CCOC(=O)c1cnc2n(c1=O)CCCCC2 yielded a melting point of 82 to 84 °C.
Work on CCOC(=O)COc1cc(O)ccc1C(=O)c1ccc(OCc2nc(-c3ccccc3)oc2C)cc1 yielded a melting point of 184 to 186 °C.
With CC(C)(CO)Cc1ccc(-c2ccc(CC(C)(C)CO)cc2)cc1 the melting point was 168 to 170 °C.
Work on COc1ccc(C(=O)c2cccc([N+](=O)[O-])c2C)cc1 yielded a melting point of 110 to 113 °C.
For COc1cc(C)c(Nc2nnc3n2C(c2ccc(F)cc2)CSC3)cc1OC (stereo not drawn), the melting point was 165 to 166 °C.
Nc1ccc(C(=O)Nc2ccc3oc4c(c3c2)CCCC4)cc1 gave a melting point of 207 to 208 °C.
Compound S=c1oc2ccccc2o1 has a melting point of 151 to 153 °C.
CCCCCCCCCCCCCCCCCCNC(=O)OCC(CN(C(C)=O)S(=O)(=O)CCCI)NC(C)=O (stereo not drawn) showed a melting point of 118 to 119 °C.
